Experimental findings from a melting point compilation (Tetko et al.; mined from patent text by program, amines drawn as free bases though some values may be those of a salt) are described below.

The melting point is the temperature, or range, at which the solid turns liquid. `O=C(Nc1ccc(C(F)(F)F)cc1)Nc1ccc(S(=O)(=O)Nc2ccc(Cl)cc2)cc1` showed a melting point of 252 to 257 °C. With `CCOC1C(NC(C)=O)CC(OC)OC1C` (stereo not drawn) the figure was 199 to 200 °C. With `CCCN(CCC)C(=O)CCC(=O)O` the figure was 35 to 37 °C; with `CNCCCc1cc(C(=O)Nc2ccc(-c3ccc(C(C)=O)cc3)cc2)ccc1OC`, 195 to 196 °C. With `NS(=O)(=O)c1ccc(C2=C(c3ccc(Cl)cc3)CCC2)cc1` the figure was 177 to 178 °C. For `COc1ccc2c(c1)C1Cc3ccccc3C1N2C` (stereo not drawn), the melting point amounted to 72 °C. With `[N-]=[N+]=C1C(=O)c2ccccc2-c2ccccc21`, the melting point was 107 to 109 °C. With `CC1=NS(=O)(=O)N(C(c2ccccc2)c2ccccc2)C=C1` the figure was 174 to 177 °C; with `COC(=O)c1ccc(OCC2CC(=O)N(c3ccc(OCC(C)(C)O)cc3)C2)cc1` (stereo not drawn), 89.5 to 90.5 °C; with `CCOC(=O)c1sc2cc(OCc3ccccc3)ccc2c1S(=O)c1ccccc1` (stereo not drawn), 141 to 142 °C. With `Cc1ccc(S(=O)(=O)N2CCC3(CCc4ccccc43)CC2)cc1` the figure was 140 to 142 °C; with `CN1CCN(c2ncnc3oc(-c4ccc(N)nc4)c(-c4ccccc4)c23)CC1`, 229 to 231 °C; with `CC(C)OC(=O)c1n[nH]c2c(=O)[nH]c3cc(Cl)ccc3c(=O)c12`, 291 °C. With `CCCCCCCCNC(=O)[C@@H]1C[C@H]1c1ccc([N+](=O)[O-])cc1` (relative stereo) the figure was 126 to 129 °C; with `CC(C)C[C@H](CN)CC(=O)O`, 192 to 196 °C.

In turn, `CCOC(=O)C1CCn2c1cc(C)c2C(=O)c1ccc2n1CCS2` (stereo not drawn) gave a melting point of 146 to 148 °C. With `O=C1c2ccccc2C(=O)N1CCCCN1CCC(c2c[nH]c3ccccc23)CC1` the figure was 106 to 108 °C; with `O=C(O)C(O)N1C(=O)CCN1c1ccc(Cl)cc1` (stereo not drawn), 149 to 151 °C. `CCOC(=O)C1=C(C)Nc2nc(N3CCOCC3)nc(N3CCOCC3)c2C1c1ccccn1` (stereo not drawn) came in with a melting point of 226 °C. As to `C[C@H]1CCCN(C(=O)Cc2ccc(Cl)c(Cl)c2)[C@H]1C=O` (relative stereo), the melting point fell in the range of 97 to 98 °C.

For the compound `COc1ccc(-n2c3ccccc3c3cc(C(C#N)=C(C#N)c4cc(C(F)(F)F)cc(C(F)(F)F)c4)ccc32)cc1`, the melting point fell in the range of 170 to 172 °C. With `C1=CC(CCC2c3ccccc3-c3ccccc32)c2ccccc21` (stereo not drawn), the melting point was 79 to 80 °C. With `CC(=O)c1cc(I)c(O)c(Cl)n1` the figure was 223 to 224 °C; with `N#Cc1ccccc1-c1ccc(CN=[N+]=[N-])cc1`, 69 to 70 °C; with `COc1ccc2c(c1)N(C(C)=O)CCO2`, 76 to 77 °C. With `CC(C)(C)OC(=O)[C@@H](Cc1ccccc1)NC(=O)C1CN(c2ccc(C#N)cc2)C(=O)O1` (stereo partly drawn) the figure was 72 °C; with `CCCn1nc(C)c(C#N)c1N`, 104 to 105 °C; with `CC(CC(=O)c1cccc(C(F)(F)F)c1)C(=O)O` (stereo not drawn), 90 to 91 °C. Compound `O=S1(=O)c2ccccc2-c2ccc(F)cc21` gave a melting point of 229 to 233 °C.

`CCCCn1c(=O)c(NC(=O)Nc2c(C(C)C)cccc2C(C)C)c(-c2cccc(OCCO)c2)c2cccnc21` had a melting point of 106 to 110 °C. With `COC(=O)c1ccc(CCNCC(O)c2ccccc2)cc1` (stereo not drawn) the figure was 105 to 106 °C. For the compound `O=C1NC(=O)C(Cc2ccc(OC[C@@H]3CCCN3c3nc4ccccc4s3)cc2)S1` (stereo partly drawn), the melting point stood at 95 °C. With `Cc1ccc(C(Cl)=NOS(=O)(=O)CCCCl)cc1` the figure was 56 to 58 °C; with `CCOc1ccc(-c2c(C)c3cc(O)ccc3n2Cc2ccc(OCCN3CCCCC3)cc2)cc1`, 173 to 175 °C; with `Cc1c(O)ncnc1C(F)F`, 166 to 167 °C. With `CN(C)CC1CNc2ccc(Cl)cc2C1` (stereo not drawn) the figure was 94 to 96 °C; with `CCC(CC)(OCc1oc(-c2ccc(Cl)cc2)nc1C)C(=O)O`, 157 °C; with `CC1(C)C2CC[C@@]1(N1CCOCC1)C(=O)C2`, 89.5 to 90.5 °C. With `Cc1nc(C(=O)NCCN(C)C)c2n1-c1ccc(Cl)cc1C(c1ccccc1F)=NC2` the figure was 209 to 211 °C. In turn, `CCCC[C@]1(CC)CS(=O)(=O)c2cc(OC)c(OC)cc2[C@@H](c2ccccc2)N1O` had a melting point of 174 to 175 °C.

With `CCCCCCCCCCCCSC(C)(C)C(=O)O`, the melting point fell in the range of 62 to 64 °C. With `O=C(NCc1ccc(Cl)cc1)c1cn(-c2ccccc2)c2oc(CCl)cc2c1=O` the figure was 207 to 209 °C; with `COc1ccc(C2(O)CCSCC2)cc1OC1CCCC1`, 83 to 85 °C. With `COc1ccc(NC(=O)c2ccc(Cl)c(Cl)c2)cc1NS(=O)(=O)c1ccc(C)cc1` the figure was 228 to 230 °C.

As to `Cc1cc(C)c2cccc(OCc3c(Cl)ccc(S(=O)(=O)N4CC(O)CC4C(=O)O)c3Cl)c2n1` (stereo not drawn), the melting point is over 260 °C. With `C=CCNC(=O)ON=C1CCOc2ccccc21` the figure was 83 to 86 °C. With `CN1CCc2cc([N+](=O)[O-])c(O)cc2C(c2ccc3c(c2)CCC3)C1` (stereo not drawn) the figure was 58 to 63 °C. Turning to `CC(C)(C)OC(=O)NC(Cc1ccccc1)CC(O)C(Cc1ccccc1)NC(=O)OCc1cncs1` (stereo not drawn), the melting point lay in the range of 118 to 120 °C. With `CN(C(=O)N[C@@H](Cc1ccc(Nc2nccc3ccncc23)cc1)C(=O)O)c1ccccc1Cc1ccccc1` the figure was 157 °C; with `O=C(/C=C/c1ccc(O)c(C(F)(F)F)c1)/C=C/c1ccc(O)c(C(F)(F)F)c1`, 233 to 234 °C. With `Nc1ccccc1Oc1ccccc1C(=O)O` the figure was 150 to 151 °C. With `COc1cc2c(cc1OC)C(=O)C(=Cc1cc(Cl)cc(Cl)c1)C2`, the melting point came to 227 °C. Compound `CS(=O)(=O)c1ccc(-c2oc(C(F)F)cc(=O)c2-c2ccc(Cl)cc2)cc1` yielded a melting point of 168 to 170 °C. With `COc1c(N2CCC(NC3CC3)C(C)C2)c(F)c(N)c2c(=O)c(C(=O)O)cn(C3CC3)c12` (stereo not drawn) the figure was 218 to 220 °C.

`O=[N+]([O-])c1cccc(-c2ncc[nH]2)c1` came in with a melting point of 193 to 194 °C. With `CCOC(=O)COc1cc(-n2ncc(=O)n(C)c2=O)c(Cl)cc1Cl` the figure was 115 to 117 °C. With `O=C(Cl)c1ccc2c(c1I)OCO2` the figure was 69 to 70 °C; with `O=c1nc(-c2ccccc2)c2cc([N+](=O)[O-])ccc2[nH]1`, over 300 °C. Take `CNC(=O)c1ccc(C)c(-n2c(C)cc(OCc3ccc(F)cc3CNC(=O)Nc3cc(C(C)(C)C)nn3-c3ccc(O)c(Cl)c3)c(Cl)c2=O)c1`: the melting point is 177 to 180 °C. With `CC(=O)Nc1nc2ccccc2n1-c1nc(N2CCOCC2)nc(N2CCOCC2)n1` the figure was 150 to 153 °C; with `Cc1nn(-c2cc3nc(S)sc3cc2Cl)c(=O)n1C(F)F`, 201 to 203 °C; with `CCC1c2cccn2-c2ccc(F)cc2N1S(=O)(=O)c1ccc(O)c(Cl)c1` (stereo not drawn), 180 to 184 °C.

`O=C(c1ccc(OC(F)(F)F)cc1)N1CCc2cc(S(=O)(=O)N3CC(c4ccccc4)NC3=O)ccc21` (stereo not drawn) returned a melting point of 180 to 182 °C.
